Measured values published in ChEMBL document CHEMBL1134495, “3D-QSAR model of flavonoids binding at benzodiazepine site in GABAA receptors” (J Med Chem, 2001).

These compounds were tested against GABA-A receptor; anion channel (assay: Binding affinity towards benzodiazepine site in GABAA receptor).
Assay type: protein-complex assay

Row | SMILES | -Log Ki
1 | O=c1cc(-c2cccc([N+](=O)[O-])c2)oc2ccc([N+](=O)[O-])cc12 | 7.92
2 | COc1ccc(-c2cc(=O)c3cc(Br)ccc3o2)cc1 | 5.68
3 | O=c1cc(-c2cccc(F)c2)oc2ccc(Br)cc12 | 7.38
4 | O=c1cc(-c2cccc(Cl)c2)oc2ccc(F)cc12 | 6.7
5 | O=c1cc(-c2ccc(Br)cc2)oc2ccc([N+](=O)[O-])cc12 | 7.6
6 | COc1ccc(-c2cc(=O)c3cc(Cl)ccc3o2)cc1 | 5.9
7 | O=c1cc(-c2ccc(F)cc2)oc2ccccc12 | 5.44
8 | O=c1cc(-c2cccc(F)c2)oc2ccccc12 | 5.45
9 | O=c1cc(-c2cccc([N+](=O)[O-])c2)oc2ccc(Br)cc12 | 9
10 | O=c1cc(-c2cccc(Br)c2)oc2ccc(Cl)cc12 | 7.64
11 | O=c1cc(-c2ccc(F)cc2)oc2ccc(Cl)cc12 | 6.74
12 | O=c1cc(-c2cccc(Br)c2)oc2ccc(Br)cc12 | 7.72
13 | O=c1cc(-c2ccc(F)cc2)oc2ccc(F)cc12 | 5.6
14 | O=c1cc(-c2ccc([N+](=O)[O-])cc2)oc2ccc(Br)cc12 | 6.7
15 | O=c1cc(-c2cccc(Br)c2)oc2ccc(F)cc12 | 6.63
16 | O=c1cc(-c2cccc(Br)c2)oc2ccccc12 | 6.38
17 | O=c1cc(-c2cccc(F)c2)oc2ccc(Cl)cc12 | 6.93
18 | O=c1cc(-c2cccc([N+](=O)[O-])c2)oc2ccc(F)cc12 | 6.74
19 | O=c1cc(-c2cccc(O)c2)oc2ccc(Cl)cc12 | 6.07
20 | O=c1cc(-c2cccc(F)c2)oc2ccc(F)cc12 | 6.04
21 | O=c1cc(-c2ccccc2)oc2c(Br)c(O)c(Br)c(O)c12 | 6.15

Row | SMILES | -Log Ki
22 | O=c1cc(-c2ccccc2F)oc2ccc(Br)cc12 | 6.42
23 | O=c1cc(-c2ccccc2F)oc2ccc(Cl)cc12 | 6.38
24 | O=c1cc(-c2cccc(Cl)c2)oc2ccccc12 | 6.21
25 | O=c1cc(-c2ccccc2[N+](=O)[O-])oc2ccc(Br)cc12 | 6.68
26 | O=c1cc(-c2cccc(O)c2)oc2ccc(Br)cc12 | 6.22
27 | O=c1cc(-c2cccc(Cl)c2)oc2ccc(Cl)cc12 | 7.64
28 | O=c1cc(-c2ccccc2Cl)oc2cc(O)cc(O)c12 | 5.1
29 | O=c1cc(-c2cccc(O)c2)oc2ccc(F)cc12 | 5.6
30 | O=c1cc(-c2cccc(Cl)c2)oc2ccc(Br)cc12 | 7.77
31 | O=c1cc(-c2cccc([N+](=O)[O-])c2)oc2ccc(Cl)cc12 | 8.1
32 | O=c1cc(-c2ccc(F)cc2)oc2ccc(Br)cc12 | 6.94
33 | O=c1cc(-c2ccccc2F)oc2cc(O)cc(O)c12 | 5.1
34 | O=c1cc(-c2ccccc2)oc2ccc(Br)cc12 [6-BROMOFLAVONE] | 7.15
35 | O=c1cc(-c2ccc(O)cc2)oc2cc(O)cc(O)c12 [APIGENIN] | 5.52
36 | O=c1cc(-c2ccccc2)oc2cc(O)c(O)c(O)c12 [BAICALEIN] | 5.25
37 | O=C(O)[C@H]1O[C@@H](Oc2cc3oc(-c4ccccc4)cc(=O)c3c(O)c2O)[C@H](O)[C@@H](O)[C@@H]1O [BAICALIN] | 4.11
38 | O=c1cc(-c2ccccc2)oc2cc(O)cc(O)c12 [CHRYSIN] | 5.52
39 | O=c1cc(-c2ccccc2)oc2ccccc12 [FLAVONE] | 6
40 | COc1c(O)cc2oc(-c3ccc(O)cc3)cc(=O)c2c1O [HISPIDULIN] | 6
41 | O=c1cc(-c2ccc(O)cc2)oc2cc(O)c(O)c(O)c12 [SCUTELLAREIN] | 4.92
42 | COc1c(O)cc(O)c2c(=O)cc(-c3ccccc3)oc12 [WOGONIN] | 5.69
